# Tests used:
# HTLV-1 [1] = experiment: Virological synapse formation and HTLV-1 transmission, SLB1/pLenti-GFP with huPBMCs, fluorescence microscopy; type: cell-based, human T-cell leukemia virus type-1; conditions: in vitro co-culture
# HIV-1 = conditions: Singh et al. 2013; cited from earlier work
# ZIKV (PLCal_ZV strain) = experiment: CPE-based antiviral assay, ZIKV, neutral red readout (Example 14); type: cell-based, Zikavirus; conditions: 6 days post infection
# Method: A CPE-based antiviral assay was performed by infecting target cells in the presence or absence of test compositions, at a range of concentrations. […] cytopathic effects and cell death. […] For CPE-based assays, cell viability was determined with a neutral red readout. Viable cells incorporate neutral red in their lysosomes. Uptake of neutral red relies on the ability of live cells to maintain a lower pH inside their lysosomes than in the cytoplasm, and this active process requires ATP. Once inside the lysosome, the neutral red dye becomes charged and is retained intracellularly. […] The amount of neutral red in solution was quantified by reading the absorbance (optical density) of each well at 490 nm […]
# Cytotoxic effects were evaluated in uninfected cells by comparing viability in the presence of inhibitors to the viability of mock-treated cells. Cytotoxicity was determined by an XTT viability assay, which was conducted at the same timepoint as the readout for the corresponding infection assay.
# Test compositions were dissolved in 100% methanol. […] When possible, the EC50 and CC50 of the composition was determined for each assay using GraphPad Prism software. […]
# Protection of ZIKV-induced cytopathic effect (CPE) with Neutral Red readout: For the ZIKV antiviral assay, the PLCal_ZV strain was used. […]
# HTLV-1 [2] = experiment: Infectivity of HTLV-1 particles from treated SLB1 cells on primary huPBMCs, p19Gag ELISA; type: cell-based, human T-cell leukemia virus type-1; conditions: even the lowest concentration (10 μg/ml); relative to vehicle control
# Vero-E6 cells = conditions: African green monkey
# huPBMCs = experiment: Cytotoxicity/apoptosis in primary huPBMCs, Annexin V-FITC/PI staining; type: cell-based, human; conditions: compared to the vehicle control, 72 hrs
# Method: Primary buffy-coat huPBMCs were isolated and stimulated with phytohemagglutinin (PHA) and cultured in the presence of recombinant human interleukin-2 (hIL-2). The cells were then treated for 72 hrs with increasing concentrations of oleandrin or a N. oleander extract, or with increasing volumes of the Vehicle. The samples were subsequently stained with Annexin V-FITC and PI and the relative percentages of apoptotic (i.e., Annexin V-FITC and/or PI-positive) cells per field were quantified by confocal fluorescence-microscopy and counting in-triplicate.
# Cytotoxic effects of the Vehicle control, N. oleander extract, and the oleandrin compound were assessed by treating primary huPBMCs for 72 hrs, and then the cultures were stained with Annexin V-FITC and PI. The relative percentages of apoptotic (i.e., Annexin V-FITC and/or PI-positive) cells were quantified by fluorescence-microscopy and counting triplicate visual fields using a 20× objective lens. The total numbers of cells were determined using DIC phase-contrast microscopy. Cyclophosphamide (50 μM)-treated cells were included as a positive control for apoptosis. NA indicates the number of cells in this sample was too low for accurate assessment due to higher toxicity. […]
smiles,measurement,setting,value
CO[C@H]1C[C@H](O[C@H]2CC[C@@]3(C)[C@H](CC[C@@H]4[C@@H]3CC[C@]3(C)[C@@H](C5=CC(=O)OC5)[C@@H](OC(C)=O)C[C@]43O)C2)O[C@@H](C)[C@@H]1O [oleandrin],formation of virological synapses and transmission of HTLV-1,HTLV-1 [1],inhibited the formation of virological synapses and the transmission of HTLV-1
same,HIV-1 viral infectivity in vitro,HIV-1,inhibit viral infectivity in vitro
same,efficacy against Zika virus,ZIKV (PLCal_ZV strain),demonstrates efficacy
same,infectivity of newly-synthesized p19Gag-containing virus particles,HTLV-1 [2],inhibited the infectivity
same,concentration at which cellular toxicity appeared,Vero-E6 cells,≥ 1000 ng/mL
same,Vero cells remaining viable,Vero-E6 cells; 24 h,about 80%
same,cytotoxicity in huPBMCs,huPBMCs,moderate cytotoxicity
